Measurements as given in article PMC6496756, “Zerumbone, a cyclic sesquiterpene, exerts antimitotic activity in HeLa cells through tubulin binding and exhibits synergistic activity with vinblastine and paclitaxel” (Cell Proliferation, 2018).

Molecular target: T1, tubulin (alpha/beta heterodimer)
T1 construct: purified goat brain tubulin; with alpha-tubulin/beta-tubulin heterodimer
Assay: intrinsic tryptophan fluorescence quenching; also competition with colchicine and inhibition of tubulin polymerization
Format: binding, Capra hircus

Kd: 4 µM
SMILES: C/C1=C\CC(C)(C)/C=C/C(=O)/C(C)=C/CC1 [zerumbone, (2E,6E,10E)‐2,6,9,9‐tetramethylcycloundeca‐2,6,10‐trien‐1‐one]
